The source of these data is US20250002487A1, “HETEROCYCLIC COMPOUNDS AND USES THEREOF” (Ventus Therapeutics U.S., Inc., priority 2021, published 2025).

The target in this experiment is human-cGAS (h-cGAS) (Homo sapiens, UniProt Q8N884). Put plainly: hcGAS Kinase-Glo Assay. Format: biochemical. As to conditions: 40 nM h-cGAS, 100 μM ATP, 100 μM GTP, 25 nM dsDNA, 3 h incubation, read-out: hcGAS potency IC50. In a few lines: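 IC50 values come from a luminescence-based Kinase-Glo measurement on human cGAS. Conditions follow the Lama et al. 2019 method with minor modifications.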
Sequence of human-cGAS (h-cGAS) (Q8N884 whole entry): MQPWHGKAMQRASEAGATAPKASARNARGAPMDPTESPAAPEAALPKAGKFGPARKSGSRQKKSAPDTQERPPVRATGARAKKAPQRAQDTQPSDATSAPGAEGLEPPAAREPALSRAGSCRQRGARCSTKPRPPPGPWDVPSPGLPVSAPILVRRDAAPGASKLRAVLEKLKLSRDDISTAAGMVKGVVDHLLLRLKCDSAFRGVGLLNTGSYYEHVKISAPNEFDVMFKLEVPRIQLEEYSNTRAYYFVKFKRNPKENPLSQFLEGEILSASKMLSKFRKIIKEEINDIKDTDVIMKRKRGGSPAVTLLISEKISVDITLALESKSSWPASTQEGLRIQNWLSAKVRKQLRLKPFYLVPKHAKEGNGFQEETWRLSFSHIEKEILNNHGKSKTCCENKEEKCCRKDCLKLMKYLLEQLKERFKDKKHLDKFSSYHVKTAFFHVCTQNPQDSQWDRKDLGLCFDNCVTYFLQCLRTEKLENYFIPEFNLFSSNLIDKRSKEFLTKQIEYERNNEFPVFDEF
Regarding `CSc1nnc(NC(=O)c2nnc(Cc3cccc(Cl)c3)o2)s1` [Compound 44, 5-(3-chlorobenzyl)-N-(5-(methylthio)-1,3,4-thiadiazol-2-yl)-1,3,4-oxadiazole-2-carboxamide], the half-maximal inhibitory concentration (IC50) was not below 1000 nM.
Turning to `CSc1nnc(NC(=O)c2cc(C(C)C)no2)s1` [Compound 82, 3-isopropyl-N-(5-(methylthio)-1,3,4-thiadiazol-2-yl)isoxazole-5-carboxamide], the IC50 lay in the range of 500 to 1000 nM.
To `CSc1nnc(NC(=O)c2noc(-c3cccnc3)n2)s1` [Compound 105, N-[5-(methylsulfanyl)-1,3,4-thiadiazol-2-yl]-5-(pyridin-3-yl)-1,2,4-oxadiazole-3-carboxamide] belongs not below 1000 nM; to `O=C(Nc1nnc(C(F)F)s1)c1onc2ccccc12` [Compound 18, N-(5-(difluoromethyl)-1,3,4-thiadiazol-2-yl)benzo[c]isoxazole-3-carboxamide], not below 1000 nM; to `COCCOc1cc(C(=O)Nc2nnc(-c3ccccc3Cl)s2)on1` [Compound 175, N-(5-(2-chlorophenyl)-1,3,4-thiadiazol-2-yl)-3-(2-methoxyethoxy)isoxazole-5-carboxamide], 100 to 500 nM.
Consider `CSc1nnc(NC(=O)c2noc(N3CCCCC3)n2)s1` [Compound 101, N-[5-(methylthio)-1,3,4-thiadiazol-2-yl]-5-(piperidin-1-yl)-1,2,4-oxadiazole-3-carboxamide], for which the IC50 was not below 1000 nM.
As for `CSc1nnc(NC(=O)c2cc(-c3ccccc3-c3ccccc3)cc(=O)o2)s1` [Compound 182, 4-([1,1′-biphenyl]-2-yl)-N-(5-(methylthio)-1,3,4-thiadiazol-2-yl)-2-oxo-2H-pyran-6-carboxamide], the IC50 is 500 to 1000 nM.
Then `CSc1nnc(NC(=O)c2nnc(N3CCC(O)C3)o2)s1` (stereo not shown) [Compound 116, 5-(3-hydroxypyrrolidin-1-yl)-N-[5-(methylsulfanyl)-1,3,4-thiadiazol-2-yl]-1,3,4-oxadiazole-2-carboxamide], with 500 to 1000 nM.
In the case of `CSc1nnc(NC(=O)c2onc3ccc(Sc4ccccc4)cc23)s1` [Compound 163, N-(5-(methylthio)-1,3,4-thiadiazol-2-yl)-5-(phenylthio)benzo[c]isoxazole-3-carboxamide], the IC50 was not below 1000 nM.
Then `CSc1nnc(NC(=O)c2nnc(Cc3ccccc3Cl)o2)s1` [Compound 49, 5-(2-chlorobenzyl)-N-(5-(methylthio)-1,3,4-thiadiazol-2-yl)-1,3,4-oxdiazole-2-carboxamide], with 500 to 1000 nM.
Then `CSc1nnc(NC(=O)c2nc(-c3ccccc3)cs2)s1` [Compound 65, N-(5-(methylthio)-1,3,4-thiadiazol-2-yl)-4-phenylthiazole-2-carboxamide], with not below 1000 nM; and `CSc1nnc(NC(=O)c2cc(-c3ccc(C)cc3)no2)s1` [Compound 215, 3-(4-methylphenyl)-N-[5-(methylsulfanyl)-1,3,4-thiadiazol-2-yl]-1,2-oxazole-5-carboxamide], with 500 to 1000 nM; and `CSc1nnc(NC(=O)c2cc(C3CCOCC3)no2)s1` [Compound 80, N-(5-(methylthio)-1,3,4-thiadiazol-2-yl)-3-(tetrahydro-2H-pyran-4-yl)isoxazole-5-carboxamide], with 500 to 1000 nM.
Then `O=C(Nc1nnc(-c2ccccc2Cl)s1)c1cc(O)no1` [Compound 55, N-(5-(2-chlorophenyl)-1,3,4-thiadiazol-2-yl)-3-hydroxyisoxazole-5-carboxamide], with less than 100 nM; and `CSc1nnc(NC(=O)c2cc(-c3cncc4ccccc34)cc(=O)o2)s1` [Compound 256, 4-(4-isoquinolyl)-N-(5-methylsulfanyl-1,3,4-thiadiazol-2-yl)-6-oxo-pyran-2-carboxamide], with 500 to 1000 nM; and `CSc1nnc(NC(=O)c2onc3ccc(Cn4cc(C(=O)O)c(=O)c5ccccc54)cc23)s1` [Compound 184, 1-((3-((5-(Methylthio)-1,3,4-thiadiazol-2-yl)carbamoyl)benzo[c]isoxazol-5-yl)methyl)-4-oxo-1,4-dihydroquinoline-3-carboxylic acid], with not below 1000 nM.
